# Target: AMPK
# Assay: AMPK activation, enzyme-linked immunosorbent assay
# Type: biochemical
# Conditions: Table 2, ELISA
# Protocol: Compounds 1-54 were assayed for their ability to activate AMPK using an enzyme-linked immunosorbent assay.
# Compounds 55-62 of Table 1 were assayed for their ability to activate AMPK using an enzyme-linked immunosorbent assay.
# Compounds 63-66 of Table 1 were assayed for their ability to activate AMPK using an enzyme-linked immunosorbent assay.
# Compounds 67-71 of Table 1 were assayed for their ability to activate AMPK using an enzyme-linked immunosorbent assay.
# Compound 72 of Table 1 was assayed for its ability to activate AMPK using an enzyme-linked immunosorbent assay.
row,SMILES,EC50
1,"N#Cc1ccc(CN2CCC(NC(=O)c3ccc4[nH]c5c(c4c3)CN(C(=O)OCc3ccccc3)CC5)CC2)cc1 [Compound 1, benzyl 8-(1-(4-cyanobenzyl)piperidin-4-ylcarbamoyl)-3,4-dihydro-1H-pyrido[4,3-b]indole-2(5H)-carboxylate]",1 to 5 µM
2,"O=C(NC1CCN(Cc2ccccc2)CC1)c1ccc2[nH]c3c(c2c1)CN(C(=O)OCc1ccccc1)CC3 [Compound 2, benzyl 8-(1-(4-benzyl)piperidin-4-ylcarbamoyl)-3,4-dihydro-1H-pyrido[4,3-b]indole-2(5H)-carboxylate]",10 to 50 µM
3,"CC(C)(C)OC(=O)N1CCC(NC(=O)c2ccc3[nH]c4c(c3c2)CN(C(=O)OCc2ccccc2)CC4)CC1 [Compound 3, benzyl 8-(1-(tert-butoxy-carbonyl)piperidin-4-ylcarbamoyl)-3,4-dihydro-1H-pyrido[4,3-b]indole-2(5H)-carboxylate]",10 to 50 µM
4,"N#Cc1ccc(CN2CCC(NC(=O)c3ccc4[nH]c5c(c4c3)CN(Cc3ccccc3)CC5)CC2)cc1 [Compound 4, 2-benzyl-N-(1-(4-cyano-benzyl)piperidin-4-yl)-2,3,4,5-tetrahydro-1H-pyrido[4,3-b]indole-8-carboxamide]",1 to 5 µM
5,"O=C(NC1CCN(Cc2ccc(C(F)(F)F)cc2)CC1)c1ccc2[nH]c3c(c2c1)CN(Cc1ccccc1)CC3 [Compound 5, 2-benzyl-N-(1-(4-trifluoromethylbenzyl)piperidin-4-yl)-2,3,4,5-tetrahydro-1H-pyrido [4,3-b]indole-8-carboxamide]",1 to 5 µM
6,"CC(C)(C)OC(=O)N1CCC(NC(=O)c2ccc3[nH]c4c(c3c2)CN(Cc2ccc(C(F)(F)F)cc2)CC4)CC1 [Compound 6, tert-butyl 4-(2-(4-(trifluoromethyl)benzyl)-2,3,4,5-tetrahydro-1H-pyrido[4,3-b]indole-8-carboxamido)piperidine-1-carboxylate]",0.5 to 1 µM
7,"O=C(NC1CCN(Cc2ccncc2)CC1)c1ccc2[nH]c3c(c2c1)CN(Cc1ccccc1)CC3 [Compound 7, 2-benzyl-N-(1-(pyridin-4-ylmethyl)piperidin-4-yl)-2,3,4,5-tetrahydro-1H-pyrido[4,3-b]indole-8-carboxamide]",5 to 10 µM
8,"O=C(NC1CCN(Cc2cccnc2)CC1)c1ccc2[nH]c3c(c2c1)CN(Cc1ccc(F)cc1)CC3 [Compound 8, 2-(4-fluorobenzyl)-N-(1-(pyridin-3-ylmethyl)piperidin-4-yl)-2,3,4,5-tetrahydro-1H-pyrido [4,3-b]indole-8-carboxamide]",5 to 10 µM
9,"N#Cc1ccc(CN2CCC(NC(=O)c3ccc4[nH]c5c(c4c3)CN(Cc3ccc(F)cc3)CC5)CC2)cc1 [Compound 9, N-(1-(4-cyanobenzyl)piperidin-4-yl)-2-(4-fluorobenzyl)-2,3,4,5-tetrahydro-1H-pyrido [4,3-b]indole-8-carboxamide]",< 0.5 µM
10,"O=C(NC1CCN(Cc2ccc(C(F)(F)F)cc2)CC1)c1ccc2[nH]c3c(c2c1)CN(Cc1ccc(F)cc1)CC3 [Compound 10, N-(1-(4-trifluoromethyl-benzyl)piperidin-4-yl)-2-(4-fluorobenzyl)-2,3,4,5-tetrahydro-1H-pyrido[4,3-b]indole-8-carboxamide]",0.5 to 1 µM
11,"O=C(NC1CCN(Cc2cccnc2)CC1)c1ccc2[nH]c3c(c2c1)CN(Cc1ccc(C(F)(F)F)cc1)CC3 [Compound 11, N-(1-(pyridin-3-ylmethyl)piperidin-4-yl)-2-(4-(trifluoromethyl)benzyl)-2,3,4,5-tetrahydro-1H-pyrido[4,3-b]indole-8-carboxamide]",< 0.5 µM
12,"N#Cc1ccc(CN2CCC(NC(=O)c3ccc4[nH]c5c(c4c3)CN(Cc3ccc(C(F)(F)F)cc3)CC5)CC2)cc1 [Compound 12, N-(1-(4-cyanobenzyl)piperidin-4-yl)-2-(4-(trifluoromethyl)benzyl)-2,3,4,5-tetrahydro-1H-pyrido[4,3-b]indole-8-carboxamide]",< 0.5 µM
13,"O=C(NC1CCN(Cc2ccc(C(F)(F)F)cc2)CC1)c1ccc2[nH]c3c(c2c1)CN(Cc1ccc(C(F)(F)F)cc1)CC3 [Compound 13, N-(1-(4-trifluoromethyl-benzyl)piperidin-4-yl)-2-(4-(trifluoromethyl)benzyl)-2,3,4,5-tetrahydro-1H-pyrido[4,3-b]indole-8-carboxamide]",< 0.5 µM
14,"O=C(NC1CCN(CCc2ccccc2)CC1)c1ccc2[nH]c3c(c2c1)CN(Cc1ccc(C(F)(F)F)cc1)CC3 [Compound 14, N-(1-phenethyl-piperidin-4-yl)-2-(4-(trifluoromethyl)benzyl)-2,3,4,5-tetrahydro-1H-pyrido[4,3-b]indole-8-carboxamide]",< 0.5 µM
15,"O=C(NC1CCN(c2ccc(F)cc2)CC1)c1ccc2[nH]c3c(c2c1)CN(Cc1ccc(C(F)(F)F)cc1)CC3 [Compound 15, N-(1-(4-fluorophenyl)piperidin-4-yl)-2-(4-(trifluoromethyl)benzyl)-2,3,4,5-tetrahydro-1H-pyrido[4,3-b]indole-8-carboxamide]",< 0.5 µM
16,"Cn1c2c(c3cc(C(=O)NC4CCN(Cc5ccc(C#N)cc5)CC4)ccc31)CN(Cc1ccc(C(F)(F)F)cc1)CC2 [Compound 16, N-(1-(4-cyanobenzyl)piperidin-4-yl)-5-methyl-2-(4-(trifluoromethyl)benzyl)-2,3,4,5-tetrahydro-1H-pyrido[4,3-b]indole-8-carboxamide]",< 0.5 µM
17,"Cn1c2c(c3cc(C(=O)NC4CCN(Cc5ccc(C(F)(F)F)cc5)CC4)ccc31)CN(Cc1ccc(C(F)(F)F)cc1)CC2 [Compound 17, N-(1-(4-trifluoromethyl-benzyl)piperidin-4-yl)-5-methyl-2-(4-(trifluoro-methyl)benzyl)-2,3,4,5-tetrahydro-1H-pyrido [4,3-b]indole-8-carboxamide]",0.5 to 1 µM
18,"Cn1c2c(c3cc(C(=O)NC4CCN(Cc5cccnc5)CC4)ccc31)CN(Cc1ccc(C(F)(F)F)cc1)CC2 [Compound 18, 5-methyl-N-(1-(pyridin-3-ylmethyl)piperidin-4-yl)-2-(4-(trifluoromethyl)benzyl)-2,3,4,5-tetrahydro-1H-pyrido[4,3-b]indole-8-carboxamide]",1 to 5 µM
19,"O=C(NC1CCN(Cc2ccccc2)CC1)c1ccc2[nH]c3c(c2c1)CN(S(=O)(=O)c1ccc(C(F)(F)F)cc1)CC3 [Compound 19, N-(1-benzylpiperidin-4-yl)-2-(4-(trifluoromethyl)phenylsulfonyl)-2,3,4,5-tetrahydro-1H-pyrido [4,3-b]indole-8-carboxamide]",> 100 µM
20,"CC(=O)n1c2c(c3cc(C(=O)NC4CCN(Cc5cccnc5)CC4)ccc31)CN(Cc1ccc(C(F)(F)F)cc1)CC2 [Compound 20, 5-acetyl-N-(1-(pyridin-3-ylmethyl)piperidin-4-yl)-2-(4-(trifluoromethyl)benzyl)-2,3,4,5-tetrahydro-1H-pyrido[4,3-b]indole-8-carboxamide]",1 to 5 µM
21,"N#Cc1ccc(S(=O)(=O)N2CCC(NC(=O)c3ccc4[nH]c5c(c4c3)CN(Cc3ccc(C(F)(F)F)cc3)CC5)CC2)cc1 [Compound 21, N-(1-(4-cyanophenyl-sulfonyl)piperidin-4-yl)-2-(4-(trifluoromethyl)benzyl)-2,3,4,5-tetrahydro-1H-pyrido[4,3-b]indole-8-carboxamide]",0.5 to 1 µM
22,O=C(NC1CCN(S(=O)(=O)c2cccnc2)CC1)c1ccc2[nH]c3c(c2c1)CN(Cc1ccc(C(F)(F)F)cc1)CC3 [Compound 22],0.5 to 1 µM

# Reference: patent US8895578B2, “Carboxamide, sulfonamide and amine compounds and methods for using the same” (Rigel Pharmaceuticals, Inc., priority 2007, dated 2014)
